# According to US4489163A, “rCRF and analogs” (The Salk Institute for Biological Studies, priority 1983, dated 1984):
# Entries after “also recorded” stand apart in the source; their conditions may differ.
# Columns and labels:
# [1] = lowering of blood pressure in rats; format: in vivo
# [2] = lowering of blood pressure in dogs; format: in vivo
# [3] = test system: cultured rat pituitary cells; assay: secretion of ACTH and β-endorphin by cultured rat pituitary cells in vitro; format: cell-based
# From the text: (§1) The synthetic and the natural rCRF were examined for their effects on the secretion of ACTH and β-endorphin in vitro and the synthetic rCRF was also examined in vivo.
# [4] = activity and learning performance after administration into the ventricles; format: in vivo; conditions: administered into the ventricles, rats
# From the text: Because ACTH and β-END secretion is the "sine qua non" of an animal's response to stress, it was not surprising that rCRF has significant effects on the brain as a mediator of the body's stress response. Accordingly, rCRF may also find application in modifying the mood, learning and behavior of normal and mentally disordered individuals. Because rCRF and its analogs elevate the levels of ACTH, β-END, β-lipotropin, other pro-opiomelanocortin gene products and corticosterone, its administration can be used to induce their effects on the brain and its periphery to thereby influence memory, mood, pain appreciation, etc., and more specifically, alertness, depression and/or anxiety.
# [5] = test system: ACTH and β-endorphin-like (β-END-LI) secretion; assay: ACTH and β-END-LI secretion in vivo after intravenous administration; set-up: species or system rats; conditions: for stimulation of ACTH and β-END-LI secretion in vivo (words): several rat preparations
# From the text: as §1
smiles,measurement,setting,value
CC[C@H](C)[C@H](NC(=O)[C@@H](NC(=O)[C@H](CCC(=O)O)NC(=O)[C@H](CCSC)NC(=O)[C@H](CC(C)C)NC(=O)[C@H](CCCCN)NC(=O)[C@H](CCCNC(=N)N)NC(=O)[C@H](CC(N)=O)NC(=O)[C@H](CO)NC(=O)[C@H](Cc1c[nH]cn1)NC(=O)[C@H](C)NC(=O)[C@H](CCC(N)=O)NC(=O)[C@H](CCC(N)=O)NC(=O)[C@H](C)NC(=O)[C@H](CC(C)C)NC(=O)[C@H](CCC(N)=O)NC(=O)[C@H](CCC(=O)O)NC(=O)[C@H](C)NC(=O)[C@H](CCCNC(=N)N)NC(=O)[C@H](C)NC(=O)[C@H](CCSC)NC(=O)[C@H](CCC(=O)O)NC(=O)[C@H](CC(C)C)NC(=O)[C@@H](NC(=O)[C@H](CCC(=O)O)NC(=O)[C@H](CCCNC(=N)N)NC(=O)[C@H](CC(C)C)NC(=O)[C@H](CC(C)C)NC(=O)[C@H](Cc1c[nH]cn1)NC(=O)[C@H](Cc1ccccc1)NC(=O)[C@@H](NC(=O)[C@H](CC(C)C)NC(=O)[C@H](CC(=O)O)NC(=O)[C@H](CC(C)C)NC(=O)[C@H](CO)NC(=O)[C@@H](NC(=O)[C@@H]1CCCN1C(=O)[C@@H]1CCCN1C(=O)[C@H](CCC(=O)O)NC(=O)[C@H](CCC(=O)O)NC(=O)[C@@H](N)CO)[C@@H](C)CC)[C@@H](C)O)C(C)C)[C@@H](C)CC)C(N)=O [synthetic rCRF],lowering of blood pressure,[1]; rats,dramatic effect to lower blood pressure
same,lowering of blood pressure,"[1]; species not given, general procedure of Example III",substantially lower blood pressure for an extended time period
same,lowering of blood pressure,[2],dramatic effect to lower blood pressure
same,EC50,"[3]; concentration giving half-maximal response, cultured rat pituitary cells",~0.1 nM
same,"minimal response, secretion of ACTH and β-endorphin","[3]; concentration giving minimal response, cultured rat pituitary cells",about 10 picomolar
same,"maximal concentrations, secretory response at a plateau level",[3]; cultured rat pituitary cells,> 5 nM
same,stimulation of secretion of ACTH and β-endorphin in vitro,[3]; in vitro,high potency; also recorded: stimulate ACTH and β-endorphin activies
same,activity,[4],increases activity
same,learning performance,[4],improves learning performance
same,elevation of ACTH and β-endorphin-like (β-END-LI) secretion,[5]; in vivo doses from 30 ng to 3 μg/Kg of body weight,5-20 fold
same,stimulation of ACTH and β-END-LI secretion in vivo (words),[5],stimulate ACTH and β-endorphin activies
same,stimulation of ACTH and β-END-LI secretion in vivo (words),[5]; listed as Synthetic rCRF,powerful stimulator of ACTH and β-END-LI secretion in vivo
same,time plasma levels of ACTH and β-END-LI are elevated,"[5]; intravenous, nembutal-anesthesized male rats and quiescent male or female rats with indwelling cannulae",5 to 20 min
